Data set [1] in a line: Oral bioavailability in rat. It counts as ADME, organism-based. Conditions: in vivo.
The subject of data set [2] is Mus musculus. In words: Antidepressant activity in Swiss mouse assessed as reduction of immobility time at 0.5 mg/kg, ip after 30 mins by forced swimming test relative to vehicle-treated control. Type of data set: functional. More on the design: scale not given: the % may be the effect or the level left. The conditions noted are these: route intraperitoneal.
For data set [3], the system named is Mus musculus. In words: Toxicity in Swiss mouse assessed as horizontal activity count at 0.5 mg/kg, ip after 30 mins measured for 120 mins by open field locomotor activity test. Type of data set: organism-based. On the set-up: dose 0.5 mg/kg, route intraperitoneal. Conditions: in vivo.
For data set [4], the system named is Mus musculus. Nature of the data set: Toxicity in Swiss mouse assessed as total distance travelled at 0.5 mg/kg, ip after 30 mins measured for 120 mins by open field locomotor activity test. On the set-up: dose 0.5 mg/kg, route intraperitoneal. Type of data set: organism-based. The conditions noted are these: in vivo, 2 h.
The subject of data set [5] is Mus musculus. Nature of the data set: Antidepressant activity in Swiss mouse assessed as reduction of immobility time at 1 mg/kg, ip after 30 mins by forced swimming test relative to vehicle-treated control. Type of data set: functional. More on the design: scale not given: the % may be the effect or the level left. Conditions: route intraperitoneal.
The test system of data set [6] is Mus musculus. In words: Antidepressant activity in Swiss mouse assessed as reduction of immobility time at 0.5 mg/kg, ip by tail suspension test relative to vehicle-treated control. Type of data set: functional. More on the design: scale not given: the % may be the effect or the level left. The conditions noted are these: route intraperitoneal.
Data set [7] concerns Mus musculus. In words: Antidepressant activity in Swiss mouse assessed as reduction of immobility time at 0.25 mg/kg, ip after 30 mins by forced swimming test relative to vehicle-treated control. Type of data set: functional. More on the design: scale not given: the % may be the effect or the level left. Conditions: route intraperitoneal.
The species entered for data set [8] is Mus musculus. Nature of the data set: Toxicity in Swiss mouse assessed as effect on neuro-muscular coordination after 30 to 180 mins by rotarod test. Type of data set: organism-based. The conditions noted are these: in vivo. A general note: The rotarod test checks motor coordination on a turning rod.
Data set [9] can be described thus: AUC (0 to infinity) in Swiss albino mouse at 10 mg/kg, ip. Type of data set: ADME, organism-based. More on the design: time infinity, dose 10 mg/kg, route intraperitoneal. The conditions noted are these: plasma.
Data set [10] in a line: Volume of distribution in Swiss albino mouse at 1 mg/kg, iv. Type of data set: ADME, organism-based. The conditions noted are these: in vivo. More on the design: dose 1 mg/kg, route intravenous.
Data set [11] is described as follows: Cmax in Swiss albino mouse at 1 mg/kg, iv. It counts as ADME, organism-based. On the set-up: dose 1 mg/kg, route intravenous. The conditions noted are these: in vivo.
The nature of data set [12]: Clearance in Swiss albino mouse at 1 mg/kg, iv. It counts as ADME, organism-based. More on the design: dose 1 mg/kg, route intravenous. The conditions noted are these: in vivo.
A short description of data set [13]: Terminal half life in Swiss albino mouse at 10 mg/kg, ip. It counts as ADME, organism-based. More on the design: dose 10 mg/kg, route intraperitoneal. The conditions noted are these: in vivo, read-out: beta t1/2 (converted).
The subject of data set [14] is Mus musculus. In words: Volume of distribution in Swiss albino mouse at 10 mg/kg, ip. On the set-up: dose 10 mg/kg, route intraperitoneal. The conditions noted are these: in vivo. Type of data set: ADME, organism-based.
Data set [15] can be described thus: Tmax in Swiss albino mouse at 10 mg/kg, ip. Type of data set: ADME, organism-based. On the set-up: dose 10 mg/kg, route intraperitoneal. The conditions noted are these: in vivo.
Data set [16] in a line: Bioavailability in Swiss albino mouse at 10 mg/kg, ip. Conditions: in vivo, intraperitoneal.
Data set [17] can be described thus: Terminal half life in Swiss albino mouse at 1 mg/kg, iv. Type of data set: ADME, organism-based. On the set-up: dose 1 mg/kg, route intravenous. Conditions: in vivo, read-out: beta t1/2 (converted).
The nature of data set [18]: Clearance in Swiss albino mouse at 10 mg/kg, ip. It counts as ADME, organism-based. More on the design: dose 10 mg/kg, route intraperitoneal. The conditions noted are these: in vivo.
Data set [19] is described as follows: AUC (0 to infinity) in Swiss albino mouse at 1 mg/kg, iv. Type of data set: ADME, organism-based. On the set-up: time infinity, dose 1 mg/kg, route intravenous. The conditions noted are these: plasma.
A short description of data set [20]: Cmax in Swiss albino mouse at 10 mg/kg, ip. It counts as ADME, organism-based. On the set-up: dose 10 mg/kg, route intraperitoneal. Conditions: in vivo.

Usually bioavailability stands for the share of a dose that reaches the circulation, judged against a reference dose that is usually intravenous. Take `CNCCC(Oc1ccc(C(F)(F)F)cc1)c1ccccc1` (stereo not given) [FLUOXETINE]: the bioavailability in [1] stood at 60%.
As for `COc1ccc(-c2cc3cc(CBr)cc(C(C)(C)C)c3oc2=O)cc1OC`, the Activity with Mus musculus [2] came to 55%.
The same measure, in the same setting: the result for `COc1ccc(-c2cc3cc(CBr)cc(C)c3oc2=O)cc1OC` reads 61%; that for `COc1ccc(-c2cc3cc(CO)cc(C(C)(C)C)c3oc2=O)cc1OC`, 58%.
Consider `COc1cc(-c2cc3cc(CBr)cc(C)c3oc2=O)cc(OC)c1OC`, for which the Activity entry in the data set on Mus musculus [3] is listed as “Non-toxic”; with Mus musculus [4], “Non-toxic”; in the data set with Mus musculus [5], 71%; in the data set on Mus musculus [6], 49%; in the data set on Mus musculus [7], 16%; in the data set on Mus musculus [2], 73%. The Activity result in the data set listed under Mus musculus [8] was “Non-toxic”.
For orientation: AUC(0-inf) means the area under the concentration-time curve extrapolated to infinity. By Cmax is commonly meant the highest concentration seen after dosing. In general, clearance refers to a measure of how efficiently the substance is removed, as volume per time. Usually Tmax stands for the time from dosing to the highest level. In general, CL/F refers to clearance divided by bioavailability, as obtained after extravascular dosing. `COc1ccc(-c2cc3cc(CNc4ccc(C)cc4)cc(C)c3oc2=O)cc1`: the Activity result in the data set on Mus musculus [3] is on record as “Non-toxic”; with Mus musculus [4] it was “Non-toxic”; with Mus musculus [5], 75%; with Mus musculus [6], 53%; in the data set on Mus musculus [7] it was 17%; with Mus musculus [2], 80%. Also, in the data set filed under Mus musculus [8], the Activity result is reported as “Non-toxic”. Besides, the AUC(0-inf) worked out at 2330 ng·h/mL in data set [9] and 316 ng·h/mL in data set [19]. The Vd stood at 18 L/kg in data set [10] and 30.45 L/kg in the data set on Mus musculus [14]. The Cmax is 105 ng/mL in data set [11] and 256 ng/mL in data set [20]. Moreover, in [12], the clearance was 67.3 mL/min/kg. In addition, the half-life in data set [13] is 7.57 h; in data set [17] it was 3.21 h. Besides, in [15], the time of peak concentration (Tmax) worked out at 2 h. The compound further showed a bioavailability in [16] of 73.4%. Also, the CL/F in data set [18] is 47.2 mL/min/kg.

Values taken from ChEMBL document CHEMBL3351433, “Synthesis and evaluation of new 3-phenylcoumarin derivatives as potential antidepressant agents” (Bioorg Med Chem Lett, 2014).
